Test results from patent US7030142B1, “Methods for the treatment of neuroleptic and related disorders using ziprasidone metabolites” (Sepracor Inc., priority 1999, dated 2006).
Where a name gives a salt, the structure may show the parent alone.

Columns and labels:
[1] = ziprasidone administered orally; cited from earlier work
[2] = biological target: D2 dopamine receptors (Homo sapiens, UniProt P14416); test: Competition radioreceptor assay, D2 dopamine receptors; settings: 90 minute incubation; (+)-butaclamol (0.25 μM) defining nonspecific binding; read-out: KD of radioligand
Method: Competition radioreceptor assays are used to determine the affinity (IC50's) of the phenylaminotetralins and other reference ligands for D2 dopamine receptors. […] Jarvie, J. R. et al., Eur. J. Pharmacol., 144:163–171 (1987) and Kula, N. S. et al., Dev. Brain Res., 66:286–287 (1992). […] Test agents are evaluated by running, in duplicate, six or more concentrations that bracketed the IC50. Three replications are performed, and the resulting data are analyzed using the ALLFIT program.

[3] = biological target: T1, 5-HT2C (Homo sapiens, UniProt P28335); settings: Seeger et al. 1995; cited from earlier work
T1 sequence (P28335 33-458): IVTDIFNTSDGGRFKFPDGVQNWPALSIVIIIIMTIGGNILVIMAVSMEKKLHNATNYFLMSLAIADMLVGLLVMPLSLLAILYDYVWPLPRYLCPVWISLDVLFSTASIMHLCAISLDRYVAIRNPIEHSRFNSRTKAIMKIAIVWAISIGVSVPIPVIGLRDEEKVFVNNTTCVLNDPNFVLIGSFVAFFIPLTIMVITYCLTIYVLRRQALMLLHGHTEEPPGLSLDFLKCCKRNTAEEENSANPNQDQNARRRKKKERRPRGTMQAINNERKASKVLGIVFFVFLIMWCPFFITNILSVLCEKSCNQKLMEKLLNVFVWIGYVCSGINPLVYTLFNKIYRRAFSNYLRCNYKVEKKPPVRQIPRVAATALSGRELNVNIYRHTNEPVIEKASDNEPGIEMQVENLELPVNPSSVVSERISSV

[4] = biological target: dopamine D2 receptor (Homo sapiens, UniProt P14416); settings: Seeger et al. 1995; cited from earlier work
[5] = biological target: 5-HT1D (Homo sapiens, UniProt P28221); settings: Seeger et al. 1995; cited from earlier work
[6] = biological target: T2, 5-HT1A (Homo sapiens, UniProt P08908); settings: Seeger et al. 1995; cited from earlier work
T2 sequence (P08908 1-422): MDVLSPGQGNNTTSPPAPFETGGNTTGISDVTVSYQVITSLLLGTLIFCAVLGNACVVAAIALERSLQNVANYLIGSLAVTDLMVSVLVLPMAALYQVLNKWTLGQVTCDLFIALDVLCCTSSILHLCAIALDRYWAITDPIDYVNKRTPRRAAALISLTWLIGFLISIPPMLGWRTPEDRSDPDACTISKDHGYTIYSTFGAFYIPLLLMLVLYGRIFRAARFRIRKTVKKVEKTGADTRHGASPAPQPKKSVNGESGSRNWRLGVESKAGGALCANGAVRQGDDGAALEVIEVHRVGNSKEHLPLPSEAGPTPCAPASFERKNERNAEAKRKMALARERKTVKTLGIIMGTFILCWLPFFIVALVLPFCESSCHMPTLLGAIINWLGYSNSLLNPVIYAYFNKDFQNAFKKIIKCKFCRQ

[7] = tested on: 5-HT2 receptor; settings: Seeger et al. 1995; cited from earlier work

Sequence of 5-HT1D (P28221 whole entry, species assumed): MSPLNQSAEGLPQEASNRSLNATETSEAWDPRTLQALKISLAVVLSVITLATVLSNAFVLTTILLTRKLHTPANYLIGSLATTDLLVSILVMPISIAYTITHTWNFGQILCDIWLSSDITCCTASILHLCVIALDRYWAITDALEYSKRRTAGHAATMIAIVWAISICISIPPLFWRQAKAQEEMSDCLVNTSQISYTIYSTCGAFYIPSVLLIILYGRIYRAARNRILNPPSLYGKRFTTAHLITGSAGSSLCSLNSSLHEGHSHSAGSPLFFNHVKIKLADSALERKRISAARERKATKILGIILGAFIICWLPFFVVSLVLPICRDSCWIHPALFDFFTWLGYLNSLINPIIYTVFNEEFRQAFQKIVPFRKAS
Sequence of D2 dopamine receptors (P14416 whole entry): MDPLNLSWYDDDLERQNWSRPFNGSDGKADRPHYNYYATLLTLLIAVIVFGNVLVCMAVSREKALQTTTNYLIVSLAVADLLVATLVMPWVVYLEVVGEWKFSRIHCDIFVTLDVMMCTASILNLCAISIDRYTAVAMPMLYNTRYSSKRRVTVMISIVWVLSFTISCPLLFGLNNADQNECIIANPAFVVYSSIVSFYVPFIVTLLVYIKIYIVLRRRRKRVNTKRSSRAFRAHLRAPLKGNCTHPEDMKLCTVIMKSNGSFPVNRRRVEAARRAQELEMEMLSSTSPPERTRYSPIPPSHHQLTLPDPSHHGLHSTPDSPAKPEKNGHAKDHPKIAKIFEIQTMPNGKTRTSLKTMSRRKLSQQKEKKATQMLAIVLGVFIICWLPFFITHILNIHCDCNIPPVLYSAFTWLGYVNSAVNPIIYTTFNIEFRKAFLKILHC
Sequence of dopamine D2 receptor (P14416 whole entry, species assumed): as the sequence (P14416 whole entry) above

For `O=C1Cc2cc(CCN3CCN(C4=NS(=O)(=O)c5ccccc54)CC3)c(Cl)cc2N1` [ZIP-SO2, ziprasidone sulfone], the “share of ziprasidone metabolites found in human urine” value [1] is listed as “less than 3%”.

In the case of `O=C1Cc2cc(CCN3CCN(c4n[s+]([O-])c5ccccc45)CC3)c(Cl)cc2N1` (centres unmarked) [ZIP-SO, ziprasidone sulfoxide], the “share of ziprasidone metabolites found in human urine” value [1] is given as “less than 10%”.

`CN1CCc2cc(Cl)c(O)cc2C(c2ccccc2)C1` (centres unmarked) [[^3H]SCH23390] gave a Kd [2] of 340 pM.

In the case of `O=C1Cc2cc(CCN3CCN(c4nsc5ccccc45)CC3)c(Cl)cc2N1` [ziprasidone, (5-[2-{4-(1,2-benzisothiazol-3-yl)piperizin-1-yl}ethyl]-6-chlorooxindole)hydrochloride hydrate], the “affinity for 5-HT2C receptor subtype” value [3] is listed as “high affinity”, the “dopamine D2 receptor antagonist” value [4] is listed as “highly potent and selective” and the “affinity for 5-HT1D receptor subtype” value [5] is listed as “high affinity”. For the same compound, the “affinity for 5-HT1A receptor subtype” value [6] was “high affinity” and the 5-HT2 receptor antagonist [7] was “highly potent and selective”.
